In patent US9399649B2, “Compounds for treating spinal muscular atrophy” (PTC Therapeutics Inc., priority 2012, dated 2016):

What was measured:
[1] = tested on: full length SMN2 minigene mRNA containing SMN2 exon 7; assay: SMN2 minigene mRNA splicing RT-qPCR assay in cultured cells; type: cell-based, human; details: Homo sapiens, HEK293-H; HEK293H cells stably transfected with SMN2-A minigene, 24 hours, 7-point concentration curve; concentration giving 1.5-fold full length SMN2 mRNA vs vehicle; read-out: EC1.5x for production of full length SMN2 mRNA
Method: The reverse transcription-quantitative PCR-based (RT-qPCR) assay is used to quantify the level of the full length SMN2 minigene mRNA containing SMN2 exon 7 in a HEK293H cell line stably transfected with said minigene and treated with a test compound.
HEK293H cells stably transfected with the SMN2-A minigene construct described above (10,000 cells/well) are seeded in 200 ut, of cell culture medium (DMEM plus 10% FBS, with 200 μg/mL hygromycin) in 96-well flat-bottom plates and the plate is immediately swirled to ensure proper dispersal of cells, forming an even monolayer of cells. Cells are allowed to attach for at least 4-6 hours. Test compounds are serially diluted 3.16-fold in 100% DMSO to generate a 7-point concentration curve. A solution of test compound (1 μL, 200× in DMSO) is added to each cell-containing well and the plate is incubated for 24 hours in a cell culture incubator (37° C., 5% CO2, 100% relative humidity). 2 replicates are prepared for each test compound concentration. The cells are then lysed in Cells-To-Ct lysis buffer and the lysate is stored at −80° C.
Primer SMN Forward A (SEQ ID NO. 1) hybridizes to a nucleotide sequence in exon 7 (nucleotide 22 to nucleotide 40), primer SMN Reverse A (SEQ ID NO. 2) hybridizes to a nucleotide sequence in the coding sequence of Firefly luciferase, SMN Probe A (SEQ ID NO. 3) hybridizes to a nucleotide sequence in exon 7 (nucleotide 50 to nucleotide 54) and exon 8 (nucleotide 1 to nucleotide 21). The combination of these three oligonucleotides detects only SMN1 or SMN2 minigenes (RT-qPCR) and will not detect endogenous SMN1 or SMN2 genes.
The SMN forward and reverse primers are used at final concentrations of 0.4 μM. The SMN probe is used at a final concentration of 0.15 μM. The GAPDH primers are used at final concentrations of 0.2 μM and the probe at 0.15 μM.
The SMN2-minigene GAPDH mix (15 μL total volume) is prepared by combining 7.5 μL of 2×RT-PCR buffer, 0.4 μL of 25×RT-PCR enzyme mix, 0.75 μL of 20×GAPDH primer-probe mix, 4.0075 μL of water, 2 μL of 10-fold diluted cell lysate, 0.06 μL of 100 μM SMN forward primer, 0.06 μL of 100 μM SMN reverse primer, and 0.225 μL of 100 μM SMN probe.
PCR is carried out at the following temperatures for the indicated time: Step 1: 48° C. (15 min); Step 2: 95° C. (10 min); Step 3: 95° C. (15 sec); Step 4: 60° C. (1 min); then repeat Steps 3 and 4 for a total of 40 cycles.
Each reaction mixture contains both SMN2-A minigene and GAPDH primersprobe sets (multiplex design), allowing simultaneous measurement of the levels of two transcripts.
Two SMN spliced products are generated from the SMN2 minigene. The first spliced product containing exon 7, corresponding to full length SMN2 mRNA, is referred to herein using the term “SMN2 minigene FL.” The second spliced product lacking exon 7 is referred to herein using the term “SMN2 minigene Δ7.”
The increase of SMN2 minigene FL mRNA relative to that in cells treated with vehicle control is determined from real-time PCR data using a modified ΔΔCt method (as described in Livak and Schmittgen, Methods, 2001, 25:402-8). The amplification efficiency (E) is calculated from the slope of the amplification curve for SMN2 minigene FL and GAPDH individually. The abundances of SMN2 minigene FL and GAPDH are then calculated as (1+E)^−Ct, where Ct is the threshold value for each amplicon. The abundance of SMN2 minigene FL is normalized to GAPDH abundance. The normalized SMN2 minigene FL abundance from test compound-treated samples is then divided by normalized SMN2 minigene FL abundance from vehicle-treated cells to determine the level of SMN2 FL mRNA relative to vehicle control.

[2] = tested on: Smn protein; assay: Smn protein assay in cultured cells (SMN HTRF); type: cell-based, human; details: SMA patient fibroblast cells (GM03813), 48 hours, 7-point concentration data, relative to vehicle control
Method: The SMN HTRF (homogeneous time resolved fluorescence) assay is used to quantify the level of Smn protein in SMA patient fibroblast cells treated with test compounds.
Cells are thawed and cultured in DMEM-10% FBS for 72 hours. Cells are trypsinized, counted and re-suspended to a concentration of 25,000 cells/mL in DMEM-10% FBS. The cell suspensions are plated at 5,000 cells per well in a 96 well microtiter plate and incubated for 3 to 5 hours. […] Test compounds are serially diluted 3.16-fold in 100% DMSO to generate a 7-point concentration curve. 1 μL of test compound solution is transferred to cell-containing wells and cells are incubated for 48 hours in a cell culture incubator (37° C., 5% CO2, 100% relative humidity). Triplicate samples are set up for each test compound concentration. After 48 hours, the supernatant is removed from the wells and 25 μL of the RIPA lysis buffer, containing protease inhibitors, is added to the wells and incubated with shaking at room temperature for 1 hour. 25 μL of the diluent is added and then 35 μL of the resulting lysate is transferred to a 384-well plate, where each well contains 5 μL of the antibody solution (1:100 dilution of anti-SMN d2 and anti-SMN kryptate in SMN reconstitution buffer). The plate is centrifuged for 1 minute to bring the solution to the bottom of the wells, then incubated overnight at room temperature. Fluorescence for each well of the plate at 665 nm and 620 nm is measured on an EnVision multilabel plate reader (Perkin-Elmer).
The normalized fluorescence signal is calculated for each sample, Blank and vehicle control well by dividing the signal at 665 nm by the signal at 620 nm. Normalizing the signal accounts for possible fluorescence quenching due to the matrix effect of the lysate. The ΔF value (a measurement of Smn protein abundance as a percent value) for each sample well is calculated by subtracting the normalized average fluorescence for the Blank control wells from the normalized fluorescence for each sample well, then dividing this difference by the normalized average fluorescence for the Blank control wells and multiplying the resulting value by 100. The ΔF value for each sample well represents the Smn protein abundance from test compound-treated samples. The ΔF value for each sample well is divided by the ΔF value for the vehicle control wells to calculate the fold increase in Smn protein abundance relative to the vehicle control.

Row | Structure (SMILES) | melting point [°C] | EC (1.5-fold) [1] [µM] | maximum fold (Fold) increase of Smn protein [2]
1 | O=c1oc(-c2ccc3c(c2)OC(F)(F)O3)cc2ccc(N3CCNCC3)cc12 [Cpd 6, 3-(2,2-difluoro-1,3-benzodioxol-5-yl)-7-(piperazin-1-yl)-1H-isochromen-1-one] | 220 to 222 | 1 to 3 | * (A maximum fold increase of ≦1.2 is indicated by one star (*))
2 | CN1CCCN(c2ccc3cc(-c4ccc5c(c4)OC(F)(F)O5)oc(=O)c3c2)CC1 [Cpd 7, 3-(2,2-difluoro-1,3-benzodioxol-5-yl)-7-(4-methyl-1,4-diazepan-1-yl)-1H-isochromen-1-one] | 175 to 177 | 1 to 3 | * (A maximum fold increase of ≦1.2 is indicated by one star (*))
3 | O=c1oc(-c2nc3ccccc3s2)cc2ccc(N3CCNCC3)cc12 [Cpd 8, 3-(1,3-benzothiazol-2-yl)-7-(piperazin-1-yl)-1H-isochromen-1-one] | 324 to 326 | 3 to 30 | * (A maximum fold increase of ≦1.2 is indicated by one star (*))
4 | C[C@@H]1CN(c2ccc3cc(-c4nc5ccccc5s4)oc(=O)c3c2)C[C@H](C)N1 [Cpd 9, 3-(1,3-benzothiazol-2-yl)-7-[(3R,5S)-3,5-dimethylpiperazin-1-yl]-1H-isochromen-1-one] | 310 to 312 | 3 to 30 | * (A maximum fold increase of ≦1.2 is indicated by one star (*))
5 | O=c1oc(-c2nc3ccccc3s2)cc2ccc(N3CCCNCC3)cc12 [Cpd 10, 3-(1,3-benzothiazol-2-yl)-7-(1,4-diazepan-1-yl)-1H-isochromen-1-one] | 277 to 279 | 1 to 3 | * (A maximum fold increase of ≦1.2 is indicated by one star (*))
6 | CN1CCCN(c2ccc3cc(-c4nc5ccccc5s4)oc(=O)c3c2)CC1 [Cpd 11, 3-(1,3-benzothiazol-2-yl)-7-(4-methyl-1,4-diazepan-1-yl)-1H-isochromen-1-one] | 270 to 272 | 0.3 to 1 | * (A maximum fold increase of ≦1.2 is indicated by one star (*))
7 | O=c1oc(-c2ccc3c(c2)OCO3)cc2ccc(N3CCNCC3)cc12 [Cpd 12, 3-(1,3-benzodioxol-5-yl)-7-(piperazin-1-yl)-1H-isochromen-1-one] | 267 to 269 | 0.3 to 1 | ** (a fold increase between >1.2 and ≦1.35 is indicated by two stars (**))

Further lines, with some results ahead:

Row | melting point [°C] | Structure (SMILES) | EC (1.5-fold) [1] [µM] | maximum fold (Fold) increase of Smn protein [2]
8 | 253 to 255 | O=c1oc(-c2ccc3c(c2)OCCO3)cc2ccc(N3CCNCC3)cc12 [Cpd 13, 3-(2,3-dihydro-1,4-benzodioxin-6-yl)-7-(piperazin-1-yl)-1H-isochromen-1-one] | 1 to 3 | * (A maximum fold increase of ≦1.2 is indicated by one star (*))
9 | 200 to 202 | O=c1oc(-c2cc(F)cc(F)c2)cc2ccc(N3CCNCC3)cc12 [Cpd 14, 3-(3,5-difluorophenyl)-7-(piperazin-1-yl)-1H-isochromen-1-one] | 1 to 3 | ** (a fold increase between >1.2 and ≦1.35 is indicated by two stars (**))
10 | 297 to 299 | CN1CCN(c2ccc3cc(-c4ccc5c(c4)OCO5)oc(=O)c3c2)CC1 [Cpd 15, 3-(1,3-benzodioxol-5-yl)-7-(4-methylpiperazin-1-yl)-1H-isochromen-1-one] | 3 to 30 | * (A maximum fold increase of ≦1.2 is indicated by one star (*))
11 | 309 to 311 | COc1ccc(-c2cc3ccc(N4C[C@@H](C)N[C@@H](C)C4)cc3c(=O)o2)cc1OC [Cpd 17, 3-(3,4-dimethoxyphenyl)-7-[(3R,5S)-3,5-dimethylpiperazin-1-yl]-1H-isochromen-1-one] | 0.3 to 1 | *** (a fold increase between >1.35 and ≦1.5 is indicated by three stars (***))
12 | 140 to 142 | COc1cccc(-c2cc3ccc(N4CCNCC4)cc3c(=O)o2)c1 [Cpd 18, 3-(3-methoxyphenyl)-7-(piperazin-1-yl)-1H-isochromen-1-one] | 0.3 to 1 | * (A maximum fold increase of ≦1.2 is indicated by one star (*))
13 | 140 to 142 | COc1cccc(-c2cc3ccc(N4CCN(C)CC4)cc3c(=O)o2)c1 [Cpd 19, 3-(3-methoxyphenyl)-7-(4-methylpiperazin-1-yl)-1H-isochromen-1-one] | 3 to 30 | * (A maximum fold increase of ≦1.2 is indicated by one star (*))
14 | 195 to 197 | COc1cccc(-c2cc3ccc(N4C[C@@H](C)N[C@@H](C)C4)cc3c(=O)o2)c1 [Cpd 20, 7-[(3R,5S)-3,5-dimethylpiperazin-1-yl]-3-(3-methoxyphenyl)-1H-isochromen-1-one] | 3 to 30 | * (A maximum fold increase of ≦1.2 is indicated by one star (*))
15 | 148 to 150 | COc1cccc(-c2cc3ccc(N4CCCNCC4)cc3c(=O)o2)c1 [Cpd 21, 7-(l,4-diazepan-1-yl)-3-(3-methoxyphenyl)-1H-isochromen-1-one] | 3 to 30 | * (A maximum fold increase of ≦1.2 is indicated by one star (*))
16 | 118 to 120 | COc1ccccc1-c1cc2ccc(N3CCN(C)CC3)cc2c(=O)o1 [Cpd 22, 3-(2-methoxyphenyl)-7-(4-methylpiperazin-1-yl)-1H-isochromen-1-one] | 1 to 3 | * (A maximum fold increase of ≦1.2 is indicated by one star (*))
